Measurements taken from patent US9687529B2, “Method of controlling coagulation” (Duke University, priority 2011, dated 2017).
“Also recorded” adds a separate entry of the source.

What was measured:
[1] = test system: fibrin deposition on oxygenator membrane; assay: Oxygenator membrane scanning electron microscopy; set-up: species or system human; details: FIG. 25 doses: UFH 5 U/mL, 9.3T 1 μM, 11F7T 2 μM, R9D-14T 5 μM, 11F7T 0.5 μM+R9D-14T 5 μM
Method: After 2 hours of circulation (or until there was visible clot formation), the minicircuit was washed with three volumes (approximately 60 mL) of PBS at a flow rate of 50 mL/min. The oxygenator membrane was removed with forceps, washed with gentle rocking in PBS for approximately 30 sec, then removed and blotted. Three pieces approximately 10 mm×10 mm were excised from different areas of the membrane with a clean razor blade. The membrane pieces were fixed overnight in PBS with 4% formaldehyde and 2% glutaraldehyde, washed two times with PBS, then dehydrated in an ethanol gradient (30% to 100%). The membranes were subsequently submerged in tetramethylsilane (TMS) for 10 min, then removed and placed in a desiccator overnight. Desiccated membrane specimens measuring approximately 10 mm×7 mm were affixed with double sided tape to circular metal stubs approximately 14 mm in diameter. The specimens were gold sputter coated in a Denton Vacuum Desk IV® (Denton Vacuum LLC, Moorestown, N.J.) according to the manufacturer's instructions. The scanning electron microscopic (SEM) images were obtained with a FEI XL 30 FE SEM (FEI, Hillsboro, Oreg.).

[2] = test system: thrombin generation in normal human platelet poor plasma; assay: Calibrated automated thrombography (CAT); assay type: biochemical
Method: Normal human platelet poor plasma (80 μL) was mixed with aptamer(s) (10 μL) in an Immunolon 2HB U Bottom Mictrotiter 96-well plate (Thermo Labsystems, Franklin, Mass.) and incubated at 37° C. for 5 min. PPP reagent (Diagnostica Stago, Parsippany, N.J.) (either 1 ρM or 5 ρM TF, 20 μL, Diagnostica Stago) was added, and the mixture was incubated at 37° C. for another 5 min. FluCa (Diagnostica Stago) (10 μL) was added to initiate the assay and thrombin generation was measured for 60 minutes at 37° C. with a Fluoroskan Ascent fluorometer (ThermoLabsystem, Helsinki, Finland) according to the manufacturer's instructions. The amount of thrombin generated was quantified by comparison to an assay with thrombin calibrator reagent (Diagnostica Stago) that has a known activity toward the fluorogenic substrate. The lag time, peak amount of thrombin generated, and endogenous thrombin potential (ETP) were automatically calculated by the Thrombinoscope software (Thrombinoscope BV, the Netherlands).
Thrombin is the final protease formed in the coagulation cascade, and the rate of thrombin generation and the total amount of thrombin generated is associated with blood clot formation and stability (Wolberg, Blood Rev 21:131-42 (2007)). To gain more information about the impact of aptamer anticoagulation on the kinetics of thrombin generation, the individual aptamers were analyzed with calibrated automated thrombography (CAT). The CAT assay measures real-time thrombin generation in plasma by monitoring cleavage of a thrombin-specific fluorogenic substrate in response to TF stimulation (Heruker et al, Pathophysiol Haemost Thromb 33: 4-15 (2003)). The parameters of thrombin generation analyzed include: the lag time (time until thrombin generation begins), the peak (the maximal amount of thrombin generated at a given time) and the endogenous thrombin potential (ETP, the total amount of thrombin generated). Similar to the aPTT and PT clotting assays, all of the individual aptamers dose-dependently impacted the various parameters of thrombin generation (FIG. 21 and Table 1). […] 9.3T minorly impacted all parameters of thrombin generation with the high TF reagent; however, because high concentrations of TF may bypass FIX activity by directly generating FXa, the manufacturer recommends low concentrations of TF for analyzing FIX deficient (i.e, Hemophilia B) plasma in the CAT.

Substance: 9.3T: FIXa aptamer, 2'-fluoropyrimidine modified RNA, SEQ ID NO: 1 (AUGGGGACUAUACCGCGUAAUGCUGCCUCCCCAU; 2'-fluoro at CU, RNA at AG, backbone not given here) [Aptamer 9.3T]
- fibrin deposition on oxygenator membrane, scanning electron micrographs (in words) [1]: obvious fibrin deposition on the membrane
- ETP ([2]; RNA 15 nM, TF 1 ρM): 1463.50 ± 19.59 nM·min
- Lag-time ([2]; RNA 15 nM, TF 1 ρM): 3.06 ± 0.15 min
- Peak ([2]; RNA 15 nM, TF 1 ρM): 195.04 ± 6.91 nM
- TTP ([2]; RNA 15 nM, TF 1 ρM): 7.34 ± 0.26 min
- ETP ([2]; RNA 15 nM, TF 5 ρM): 1812.50 ± 81.01 nM·min
- Lag-time ([2]; RNA 15 nM, TF 5 ρM): 1.72 ± 0.20 min
- Peak ([2]; RNA 15 nM, TF 5 ρM): 341.90 ± 12.54 nM
- TTP ([2]; RNA 15 nM, TF 5 ρM): 4.23 ± 0.24 min
- ETP ([2]; RNA 30 nM, TF 1 ρM): 1350.17 ± 28.02 nM·min
- Lag-time ([2]; RNA 30 nM, TF 1 ρM): 3.00 ± 0.10 min
- Peak ([2]; RNA 30 nM, TF 1 ρM): 147.88 ± 4.28 nM
- TTP ([2]; RNA 30 nM, TF 1 ρM): 8.12 ± 0.34 min
- ETP ([2]; RNA 30 nM, TF 5 ρM): 1723.67 ± 57.51 nM·min
- Lag-time ([2]; RNA 30 nM, TF 5 ρM): 1.56 ± 0.20 min
- Peak ([2]; RNA 30 nM, TF 5 ρM): 316.98 ± 3.28 nM
- TTP ([2]; RNA 30 nM, TF 5 ρM): 4.28 ± 0.40 min
- ETP ([2]; RNA 60 nM, TF 1 ρM): 1261.50 ± 64.85 nM·min
- Lag-time ([2]; RNA 60 nM, TF 1 ρM): 2.89 ± 0.15 min
- Peak ([2]; RNA 60 nM, TF 1 ρM): 110.65 ± 6.70 nM
- TTP ([2]; RNA 60 nM, TF 1 ρM): 8.95 ± 0.15 min
- ETP ([2]; RNA 60 nM, TF 5 ρM): 1741.10 ± 78.84 nM·min
- Lag-time ([2]; RNA 60 nM, TF 5 ρM): 1.70 ± 0.11 min
- Peak ([2]; RNA 60 nM, TF 5 ρM): 283.76 ± 3.20 nM
- TTP ([2]; RNA 60 nM, TF 5 ρM): 4.90 ± 0.31 min
- ETP ([2]; RNA 120 nM, TF 1 ρM): 1125.00 ± 31.79 nM·min
- Lag-time ([2]; RNA 120 nM, TF 1 ρM): 2.72 ± 0.05 min
- Peak ([2]; RNA 120 nM, TF 1 ρM): 86.13 ± 3.02 nM
- TTP ([2]; RNA 120 nM, TF 1 ρM): 9.34 ± 0.19 min
- ETP ([2]; RNA 120 nM, TF 5 ρM): 1674.50 ± 56.02 nM·min
- Lag-time ([2]; RNA 120 nM, TF 5 ρM): 1.60 ± 0.15 min
- Peak ([2]; RNA 120 nM, TF 5 ρM): 272.90 ± 9.97 nM
- TTP ([2]; RNA 120 nM, TF 5 ρM): 4.74 ± 0.37 min

Substance: R9D-14T: prothrombin/thrombin aptamer, 58-base truncation of RNA9D-14, SEQ ID NO: 3 (GGCGGTCGATCACACAGTTCAAACGTAATAAGCCAATGTACGAGGCAGACGACTCGCC; 2'-fluoro at CT, RNA at AG, backbone and T or U not given here) [Aptamer R9D-14T]
- fibrin deposition on oxygenator membrane, scanning electron micrographs (in words) [1]: obvious fibrin deposition on the membrane
- ETP ([2]; RNA 625 nM, TF 5 ρM): 1492.50 ± 54.94 nM·min
- Lag-time ([2]; RNA 625 nM, TF 5 ρM): 1.55 ± 0.08 min
- Peak ([2]; RNA 625 nM, TF 5 ρM): 314.82 ± 25.02 nM
- TTP ([2]; RNA 625 nM, TF 5 ρM): 3.88 ± 0.18 min
- ETP ([2]; RNA 1,250 nM, TF 5 ρM): 1293.00 ± 67.66 nM·min
- Lag-time ([2]; RNA 1,250 nM, TF 5 ρM): 1.55 ± 0.08 min
- Peak ([2]; RNA 1,250 nM, TF 5 ρM): 269.45 ± 13.17 nM
- TTP ([2]; RNA 1,250 nM, TF 5 ρM): 3.67 ± 0.18 min
- ETP ([2]; RNA 2,500 nM, TF 5 ρM): 1170.90 ± 90.47 nM·min
- Lag-time ([2]; RNA 2,500 nM, TF 5 ρM): 4.37 ± 0.71 min
- Peak ([2]; RNA 2,500 nM, TF 5 ρM): 192.66 ± 31.04 nM
- TTP ([2]; RNA 2,500 nM, TF 5 ρM): 7.64 ± 1.31 min
- thrombin generation (in words) ([2]; RNA 5,000 nM (5 μM), TF 5 ρM): completely inhibited thrombin generation; also recorded: no thrombin generation detected

Substance: 11F7T: FXa aptamer, 2'-fluoropyrimidine modified RNA, SEQ ID NO: 2 (GAGAGCCCCAGCGAGAUAAUACUUGGCCCCGCUCUU; 2'-fluoro at CU, RNA at AG, backbone not given here) [Aptamer 11F7T]
- fibrin deposition on oxygenator membrane, scanning electron micrographs (in words) [1]: obvious fibrin deposition on the membrane
- ETP ([2]; RNA 125 nM, TF 5 ρM): 1612.90 ± 142.40 nM·min
- Lag-time ([2]; RNA 125 nM, TF 5 ρM): 3.00 ± 0.22 min
- Peak ([2]; RNA 125 nM, TF 5 ρM): 227.75 ± 43.47 nM
- TTP ([2]; RNA 125 nM, TF 5 ρM): 7.24 ± 0.77 min
- ETP ([2]; RNA 250 nM, TF 5 ρM): 1220.50 ± 182.02 nM·min
- Lag-time ([2]; RNA 250 nM, TF 5 ρM): 4.94 ± 0.38 min
- Peak ([2]; RNA 250 nM, TF 5 ρM): 120.68 ± 21.79 nM
- TTP ([2]; RNA 250 nM, TF 5 ρM): 11.70 ± 1.13 min
- ETP ([2]; RNA 500 nM, TF 5 ρM): 738.60 ± 202.92 nM·min
- Lag-time ([2]; RNA 500 nM, TF 5 ρM): 7.97 ± 0.93 min
- Peak ([2]; RNA 500 nM, TF 5 ρM): 65.56 ± 14.57 nM
- TTP ([2]; RNA 500 nM, TF 5 ρM): 16.47 ± 1.83 min
- ETP ([2]; RNA 1,000 nM, TF 5 ρM): 459.40 ± 199.39 nM·min
- Lag-time ([2]; RNA 1,000 nM, TF 5 ρM): 9.50 ± 1.00 min
- Peak ([2]; RNA 1,000 nM, TF 5 ρM): 36.84 ± 14.42 nM
- TTP ([2]; RNA 1,000 nM, TF 5 ρM): 20.10 ± 2.96 min
